Values belong to the compound of their own block, whether it stands above or below them.
Assays:
[1] = molecular target: T1, ERα (Homo sapiens, UniProt P03372); assay: ERE-luciferase reporter assay; format: cell-based; conditions: for Efficacy (% E2): MCF-7:ws8 cells, normalized to Ctrl (0%) and E2 1 nM (100%)
T1 sequence (P03372 1-595): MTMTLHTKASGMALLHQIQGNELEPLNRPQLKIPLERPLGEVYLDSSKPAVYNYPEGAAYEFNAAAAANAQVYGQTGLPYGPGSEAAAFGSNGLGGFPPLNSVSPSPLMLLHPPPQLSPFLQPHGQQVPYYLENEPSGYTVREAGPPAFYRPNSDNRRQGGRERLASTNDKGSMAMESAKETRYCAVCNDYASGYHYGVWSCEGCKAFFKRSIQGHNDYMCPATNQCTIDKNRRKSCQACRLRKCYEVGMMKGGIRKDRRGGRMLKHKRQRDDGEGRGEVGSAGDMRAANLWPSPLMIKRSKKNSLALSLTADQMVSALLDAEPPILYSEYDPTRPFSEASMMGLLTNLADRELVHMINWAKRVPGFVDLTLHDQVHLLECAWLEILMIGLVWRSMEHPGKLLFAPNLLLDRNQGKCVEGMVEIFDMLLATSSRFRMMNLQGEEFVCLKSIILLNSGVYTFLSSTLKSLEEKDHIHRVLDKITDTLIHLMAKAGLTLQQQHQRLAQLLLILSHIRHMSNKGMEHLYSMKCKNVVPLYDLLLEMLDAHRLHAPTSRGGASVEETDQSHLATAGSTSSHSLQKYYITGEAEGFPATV

[2] = system: MCF-7:5C cells; assay: MCF-7:5C cell viability assay; format: cell-based, human
[3] = molecular target: T2, ERα-LBD/SRC3 complex (Homo sapiens, UniProt P03372); assay: TR-FRET ligand titration in presence of 10 nM E2; format: biochemical; conditions: in presence of 10 nM E2, 100 nM SRC3
T2 sequence (P03372 311-547 limits assumed): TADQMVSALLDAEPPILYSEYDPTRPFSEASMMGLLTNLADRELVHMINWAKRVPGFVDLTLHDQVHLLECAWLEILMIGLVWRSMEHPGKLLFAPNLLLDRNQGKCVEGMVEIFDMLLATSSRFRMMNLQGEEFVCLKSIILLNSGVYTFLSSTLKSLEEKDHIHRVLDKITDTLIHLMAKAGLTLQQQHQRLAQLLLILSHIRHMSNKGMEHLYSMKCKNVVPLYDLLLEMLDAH
T2 sequence (Q9Y6Q9 627-829 partner limits assumed): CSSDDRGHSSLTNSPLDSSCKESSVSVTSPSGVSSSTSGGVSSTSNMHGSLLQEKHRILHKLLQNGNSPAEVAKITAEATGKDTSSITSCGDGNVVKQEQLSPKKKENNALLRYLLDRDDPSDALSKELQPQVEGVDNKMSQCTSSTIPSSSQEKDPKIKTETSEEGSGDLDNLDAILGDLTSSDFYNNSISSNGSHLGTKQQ

[4] = system: T47D:A18/PKCα tumors; assay: T47D:A18/PKCα tamoxifen-resistant xenograft; format: in vivo, mice; conditions: 100 mg/kg oral gavage daily, within two weeks
[5] = molecular target: T2, ERα-LBD/SRC3 complex; assay: TR-FRET SRC3 titration; format: biochemical; conditions: 20 μM ligand
[6] = molecular target: T1, ERα; assay: Antagonism of E2-induced ERE-luciferase activation; format: cell-based; conditions: MCF-7:ws8, in presence of 0.1 nM E2, ShERPA 100-500 nM, 18 h
[7] = Uterine weight in xenograft study; format: in vivo, mice; conditions: T47D:A18/PKCα xenograft study, 100 mg/kg oral daily
[8] = T47D:A18/PKCα xenograft study; cited from earlier work
[9] = system: T47D:A18/PKCα tumors; conditions: T47D:A18/PKCα model; cited from earlier work
[10] = system: T47D:A18-TAM1; conditions: T47D:A18-TAM1 model; cited from earlier work

Compound: Cc1ccc(C(=O)c2c(-c3ccc(O)cc3)sc3cc(O)ccc23)cc1 [Compound 14a]
Efficacy (% E2) [1]: 100 % E2

Compound: Oc1ccc(Oc2c(-c3ccc(F)cc3)sc3cc(O)ccc23)cc1 [Compound 19, 2-(4-fluorophenyl)-3-(4-hydroxyphenoxy)benzo[b]thiophen-6-ol]
Efficacy (% E2) [1]: 100 % E2

Compound: CS(=O)(=O)c1ccc(C(=O)c2sc3cc(O)ccc3c2-c2ccc(F)cc2)cc1 [Compound 21a, (3-(4-fluorophenyl)-6-hydroxybenzo[b]thiophen-2-yl)(4-(methylsulfonyl)phenyl)methanone]
Efficacy (% E2) [1]: 100 % E2

Compound: C#Cc1ccc(C(=O)c2sc3cc(O)ccc3c2-c2ccc(F)cc2)cc1 [Compound 23, (4-ethynylphenyl)(3-(4-fluorophenyl)-6-hydroxybenzo[b]thiophen-2-yl)methanone]
Effect on FRET signal on ligand titration [3]: reduced FRET signal | Tumor size versus control tumors [4]: half the size of control tumors | Maximal FRET signal relative to E2-liganded ERα-LBD/SRC3 complex [5]: less than 50% | Antagonism of E2 induced ERE activation [6]: dose dependent reduction in E2 luciferase activity | EC50 [1]: 5 nM | Efficacy (% E2) [1]: 65 % E2

Compound: Oc1ccc(Oc2sc3cc(O)ccc3c2-c2ccc(F)cc2)cc1 [Compound 30a, 3-(4-fluorophenyl)-2-(4-hydroxyphenoxy)benzo[b]thiophen-6-ol]
Effect on FRET signal on ligand titration [3]: reduced FRET signal | Uterine weight [8]: not accompanied by a significant increase in uterine weight | Maximal FRET signal relative to E2-liganded ERα-LBD/SRC3 complex [5]: less than 50% | Antagonism of E2 induced ERE activation [6]: dose dependent reduction in E2 luciferase activity | Xenograft tumor regression [9]: dramatic regression | Xenograft tumor regression [10]: dramatic regression | Efficacy (% E2) [1]: 60 % E2

Compound: C[C@]12CC[C@@H]3c4ccc(O)cc4CC[C@H]3[C@@H]1CC[C@@H]2O [Compound E2, estradiol, reference compound]
Reduction of cell viability compared to vehicle control ([2]; 9 days): approximately 60%

More lines, main results first:

Efficacy (% E2) [1]: 100 % E2
Compound: O=C(c1ccc(C(F)(F)F)cc1)c1c(-c2ccc(F)cc2)sc2cc(O)ccc12 [Compound 14b, (2-(4-fluorophenyl)-6-hydroxybenzo[b]thiophen-3-yl)(4-(trifluoromethyl)phenyl)methanone]

Efficacy (% E2) [1]: 100 % E2
Compound: O=C(c1ccc(C(F)(F)F)cc1)c1c(-c2ccc(Cl)cc2)sc2cc(O)ccc12 [Compound 14c, (2-(4-chlorophenyl)-6-hydroxybenzo[b]thiophen-3-yl)(4-(trifluoromethyl)phenyl)methanone]

Efficacy (% E2) [1]: 100 % E2
Compound: O=C(c1ccc(O)cc1)c1sc2cc(O)ccc2c1-c1ccc(F)cc1 [Compound 21b, (3-(4-fluorophenyl)-6-hydroxybenzo[b]thiophen-2-yl)(4-hydroxyphenyl)methanone]

Efficacy (% E2) [1]: 100 % E2
Compound: O=C(c1sc2cc(O)ccc2c1-c1ccc(F)cc1)C1CCCCC1 [Compound 21g, Cyclohexyl(3-(4-fluorophenyl)-6-hydroxybenzo[b]thiophen-2-yl)methanone]
Inhibition of cell growth relative to E2 % ([2]; 10 nM, 9 day, control 0 %, E2 100 %, 0.01 µM): 100%

Efficacy (% E2) [1]: 85 % E2
Compound: O=C(c1ccc(C(F)(F)F)cc1)c1sc2cc(O)ccc2c1-c1ccc(F)cc1 [Compound 26a, (3-(4-fluorophenyl)-6-hydroxybenzo[b]thiophen-2-yl)(4-(trifluoromethyl)phenyl)methanone]
Tumor size versus control tumors [4]: half the size of control tumors | Uterine weight versus vehicle control [7]: no significant increase in uterine weight compared to vehicle control mice

Efficacy (% E2) [1]: 100 % E2
Compound: N#Cc1ccc(C(=O)c2sc3cc(O)ccc3c2-c2ccc(F)cc2)cc1 [Compound 26b, 4-(3-(4-fluorophenyl)-6-hydroxybenzo[b]thiophene-2-carbonyl)benzonitrile]

Efficacy (% E2) [1]: 70 % E2
Compound: Oc1ccc2c(-c3ccc(F)cc3)c(Oc3ccc(Cl)cc3)sc2c1 [Compound 30b, 2-(4-chlorophenoxy)-3-(4-fluorophenyl)benzo[b]thiophen-6-ol]
Antagonism of E2 induced ERE activation [6]: dose dependent reduction in E2 luciferase activity

Efficacy (% E2) [1]: 100 % E2
Compound: Oc1ccc2c(-c3ccc(F)cc3)c(Oc3ccc(F)cc3)sc2c1 [Compound 30c, 2-(4-fluorophenoxy)-3-(4-fluorophenyl)benzo[b]thiophen-6-ol]

Efficacy (% E2) [1]: 100 % E2
Compound: Oc1ccc2c(-c3ccc(F)cc3)c(Oc3ccc(F)c(F)c3)sc2c1 [Compound 30d, 2-(3,4-difluorophenoxy)-3-(4-fluorophenyl)benzo[b]thiophen-6-ol]

Source: article PMC4779956 (Journal of medicinal chemistry, 2015)
